Laboratory results: patent EP0392326B1, “Dichloro-substituted imidazole derivatives as antifungal agents” (SOCIEDAD ESPANOLA DE ESPECIALIDADES FARMACO-TERAPEUTICAS, …, priority 1989, dated 1990)

Experiments:
[1] = test system: Candida tropicalis CECT 1440; test: In vitro activity against Candida tropicalis CECT 1440 (MIC and RIF); assay type: cell-based; conditions: for RIF: Relative Inhibition Factor, Candida tropicalis CECT 1440; for activity compared with Clotrimazole: applicant's own tests, illustrated by the table of Example 3
Source text: In vitro activity against Candida tropicalis CECT 1440.
This pharmacological test allows a comparison of the activities of the two products of the present invention (WAS 2160 and WAS 2169) with the activities of the structurally closest described product (SQ 80896), the structurally closest commercial product (Clotrimazole) and the analogue product without the seven-membered ring (WAS 2162). MIC (Minimum Inhibitory Concentration, in […]) and RIF (Relative Inhibition Factor) parameters were determined in a standard way, obtaining the results of the table (WAS 2162 is the nitric acid salt of 1-[(2,4-dichlorophenyl)phenylmethyl]-1H-imidazole, prepared at our laboratory).

C. albicans = test: In vitro MIC, progressive double dilutions in liquid medium; assay type: cell-based; design: unit not given here; conditions: Sabouraud broth with gentamycin
Method: (§1) In vitro ativity against 116 strains of yeasts and 45 strains of dermatophytes
(§2) MIC-s were determined by the method of progressive double dilutions in a liquid medium, using sterile microplates. The culture medium used was the Sabouraud broth with gentamycin (100 mg/1000 mL).

C. parapsilosis = test: as above; assay type: cell-based; design: unit not given here; conditions: Sabouraud broth with gentamycin
Method: as §1, §2

C. tropicalis = test: as above; assay type: cell-based; design: unit not given here; conditions: Sabouraud broth with gentamycin
Method: as §1, §2

M. gypseum = test: as above; assay type: cell-based; design: unit not given here; conditions: Sabouraud broth with gentamycin
Method: as §1, §2

C. Krusei = test: as above; assay type: cell-based; conditions: Sabouraud broth with gentamycin
Method: as §1, §2

Epidermophyton floccosum = test: as above; assay type: cell-based; conditions: Sabouraud broth with gentamycin
Method: as §1, §2

Microsporum canis = test: as above; assay type: cell-based; conditions: Sabouraud broth with gentamycin
Method: as §1, §2

T. tonsurans = test: as above; assay type: cell-based; conditions: Sabouraud broth with gentamycin
Method: as §1, §2

Torulopsis glabrata = test: as above; assay type: cell-based; conditions: Sabouraud broth with gentamycin
Method: as §1, §2

Trich. rubrum = test: as above; assay type: cell-based; conditions: Sabouraud broth with gentamycin
Method: as §1, §2

Trichoph. mentagrophytes = test: as above; assay type: cell-based; conditions: Sabouraud broth with gentamycin
Method: as §1, §2

[2] = test system: Trichophyton mentagrophytes; test: In vivo protection against experimentally-induced dermatophytosis; conditions: guinea pig, double-blind
Method: In vivo tests of protection against experimentally-induced dermatophytosis in the guinea pig, caused by Trichophyton mentagrophytes.
Two double-blind comparative tests were carried out, with the following results: […]

candidiosis = test: In vivo antifungal activity against candidiosis; conditions: guinea pig candidiosis, double-blind
Method: In vivo test of antifungal activity against candidiosis in guinea pig
A double-blind comparative test was carried out with WAS 2160 and Clotrimazole, with the following results: […]

[3] = test system: Malassezia furfur (Pytiosporum); test: In vitro test against 30 strains of Malassezia furfur; assay type: cell-based; conditions: for % of strains with PIC lower than 40 »g/mL: PIC = Partial Inhibitory Concentration: growth inhibition greater than 50% in relation to controls
Method: In vitro test against 30 strains of Malassezia furfur (Pytiosporum)
A double-blind comparative test was carried out with WAS 2160, Clotrimazole and Bifonazole, with the results of the table. (PIC = Partial Inhibitory Concentration: growth inhibition greater than 50% in relation to controls).

[4] = Tolerance test in rabbits (eye, skin, vagina); assay type: in vivo; conditions: skin and vagina
Source text: Tolerance test of WAS 2160 in rabbits

Candida albicans = conditions: data of US 4.420.474 Table I; cited from earlier work

Structure (SMILES)	RIF [1]	MIC (C. albicans)	MIC (C. parapsilosis)	MIC (C. tropicalis)	MIC (M. gypseum)	MIC (C. Krusei)	MIC (Epidermophyton floccosum)	MIC (Microsporum canis)	MIC (T. tonsurans)	MIC (Torulopsis glabrata)	MIC (Trich. rubrum)	MIC (Trichoph. mentagrophytes)	% of negative cultures after treatment ([2]; test I)	% of animals with total clin. healing (candidiosis)	% of negative cultures after treatment (candidiosis)	% of strains with MIC lower than 40 »g/mL [3]	% of strains with PIC lower than 40 »g/mL [3]	activity compared with Clotrimazole [1]	% of negative cultures after treatment ([2]; test II)	other results
Clc1cc(Cl)c2c(c1)CCc1ccccc1C2n1ccnc1.O=[N+]([O-])O (racemic) [WAS 2160, 1-(2,4-Dichloro-10,11-dihydro-5H-dibenzo[a,d]cyclohepten-5-yl)-1H-imidazole nitrate]	39.31	2,25	2,06	3,44	1,05	3,17	0,32	0,39	0,19	1,25	0,54	0,17	50%	60%	100%	40%	60%	–	–	Tolerance [4]: innocuous and totally tolerated by the eye, the skin and the vagina
Clc1ccc2c(c1)C(n1ccnc1)c1ccccc1CC2 (centres unmarked) [SQ 80896, 1-(3-chloro-10,11-dihydro-5H-dibenzo[a,d]dicyclohepten-5-yl)-1H-imidazole]	83.96	–	–	–	–	–	–	–	–	–	–	–	–	–	–	–	–	considerably less active than Clotrimazole	–	activity compared with Clotrimazole (MIC parameters) (Candida albicans): considerably less active than Clotrimazole
c1ccc(-c2ccc(C(c3ccccc3)n3ccnc3)cc2)cc1 (centres unmarked) [Bifonazole]	–	12,10	58,97	72,67	6,25	50,50	0,02	3,12	1,20	14,88	1,19	1,48	39 % (test I)	–	–	83%	50%	–	0 % (test II)	–
Clc1ccccc1C(c1ccccc1)(c1ccccc1)n1ccnc1 [Clotrimazole]	43.05	2,43	2,36	3,51	0,97	6,18	0,09	2,69	0,90	6,29	0,31	0,23	–	30%	100%	33%	56%	–	–	–
Clc1ccc(C(c2ccccc2)n2ccnc2)c(Cl)c1 (centres unmarked) [WAS 2162, 1-[(2,4-dichlorophenyl)phenylmethyl]-1H-imidazole]	94.47	–	–	–	–	–	–	–	–	–	–	–	–	–	–	–	–	considerably less active than Clotrimazole	–	–
Clc1cc(Cl)c2c(c1)C=Cc1ccccc1C2n1ccnc1.O=[N+]([O-])O (racemic) [WAS 2169, 1-(2,4-dichloro-5H-dibenzo[a,d]cyclohepten-5-yl)-1H-imidazole nitrate]	54.94	1,98	1,08	7,58	0,08	5,61	–	0,06	–	6,33	0,30	0,17	–	–	–	–	–	–	81,8%	–
